In US11286252B2, “Alkene spirocyclic compounds as farnesoid X receptor modulators” (BRISTOL-MYERS SQUIBB COMPANY, priority 2017, dated 2022):

The molecules below were run against T1, human FXR (Homo sapiens, UniProt Q96RI1) (assay: transient human FXR/Gal4-luciferase reporter assay). Settings: Gal4-hFXR fusion construct, luciferase reporter HEK293 cells; response relative to 8 μM GW-4064.
T1 construct: expressed in transfected cells; host or cells: HEK293 cells stably carrying a 5xGal4-response-element firefly luciferase reporter, transiently transfected with pcDNA3.1-Gal4-FXR
T1 sequence (Q96RI1 262-486 limits assumed): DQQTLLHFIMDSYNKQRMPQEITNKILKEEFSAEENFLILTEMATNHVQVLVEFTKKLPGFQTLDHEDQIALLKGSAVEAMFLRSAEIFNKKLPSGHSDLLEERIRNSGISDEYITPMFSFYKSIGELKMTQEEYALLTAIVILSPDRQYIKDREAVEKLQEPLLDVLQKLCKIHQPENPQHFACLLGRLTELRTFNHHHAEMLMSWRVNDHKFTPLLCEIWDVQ
Format: cell-based
Procedure: The exemplified compounds of the present invention were tested in the transient human FXR/Gal4-luciferase reporter assay, and assay results were reported in Table 1 and Examples 1 to 3 together with other analytical data.
A Gal4-hFXR fusion construct reporter system was used as the primary assay to characterize compound activity. A construct including 5 copies of the Gal4 promoter response element upstream of a firefly luciferase reporter cDNA was stably expressed in HEK293 cells. This reporter cell line was maintained in Dulbecco's Modified Eagle's medium (DMEM; Gibco) supplemented with 1% penicillin-streptomycin (P/S) solution, 500 μg/mL Zeocin and 10% charcoal/dextran-treated fetal bovine serum (cs-FBS) at 37° C. in a humidified 5% CO2 atmosphere. Another plasmid was constructed in which the human cytomegalovirus promoter in the pcDNA3.1 vector directs the expression of the cDNA encoding a fusion protein comprised of the DNA binding domain from the Gal4 transcription factor fused to the ligand binding domain from human FXR.
The day prior to transfection, the reporter cells in culture are detached from the plate with trypsin and plated into a T75 flask at a sufficient density to achieve approximately 90% confluence the next morning. The transfection reagents are prepared by separately diluting 25 μg of the pcDNA3.1-Gal4-FXR plasmid into 1.87 mL of Opti-MEM (Thermo-Fisher), and 40 μL of Lipofectamine 2000 (Thermo-Fisher) into 1.87 mL of Opti-MEM, and then adding the diluted DNA solution into the diluted Lipofectamine 2000 solution and incubating at room temperature for 15-20 minutes. The mixture is further diluted with 10 mL of a solution comprised of DMEM, 10% cs-FBS, and 1% P/S immediately prior to transferring to the cells. The maintenance culture media is aspirated from the cells and the final transfection mixture is added before the cells are incubated overnight at 37° C. in a humidified 5% CO2 atmosphere. This protocol can be scaled up, and the transiently transfected cells can be cryopreserved in an assay-ready format.
For compound testing, 100 nL of the compounds (serial dilutions in DMSO) are dispensed with an Echo acoustic dispenser (Labcyte) into the wells of a Corning/Costar clear bottom 384-well white plate. The transfected cells are harvested, counted, and diluted such that 10-25,000 cells in 25 μL are plated into each well of the 384-well compound assay plate. The compound-treated cells are incubated overnight at 37° C. in a humidified 5% CO2 atmosphere. The next morning 25 μL of Steady-Glo (Promega) are added to each well of the plate, the mixture is incubated for 15 min. with shaking, and luminescence is measured on an Envision (Perkin Elmer) plate reader. Background counts from cells treated with DMSO alone are subtracted from all raw counts, and the corrected values are converted to a percentage of the control response attained with 8 μM GW-4064.
Molecule `COc1cc(C(=O)O)nc2ccc(N3CC4(CC(/C=C/c5c(-c6c(Cl)cncc6Cl)noc5C5CC5)C4)C3)cc12` [Example 1, (E)-6-(6-(2-(5-Cyclopropyl-3-(3,5-dichloropyridin-4-yl)isoxazol-4-yl)vinyl)-2-azaspiro[3.3]heptan-2-yl)-4-methoxyquinoline-2-carboxylic acid] has an EC50 of 155 nM.
`COc1cc(C(=O)O)nc2ccc(N3CC4(CC(/C=C/c5c(-c6ccncc6Cl)noc5C5CC5)C4)C3)cc12` [Example 2, (E)-6-(6-(2-(3-(3-chloropyridin-4-yl)-5-cyclopropylisoxazol-4-yl)vinyl)-2-azaspiro[3.3]heptan-2-yl)-4-methoxyquinoline-2-carboxylic acid] was tested, and the EC50 was 501 nM.
Molecule `O=C(O)c1cc(OC2CCC2)c2cc(N3CC4(CC(/C=C/c5c(-c6cccnc6C(F)(F)F)noc5C5CC5)C4)C3)ccc2n1` [Example 3, (E)-4-Cyclobutoxy-6-(6-(2-(5-cyclopropyl-3-(2-(trifluoromethyl)pyridin-3-yl)isoxazol-4-yl)vinyl)-2-azaspiro[3.3]heptan-2-yl)quinoline-2-carboxylic acid] has an EC50 of 86 nM.

Same assay, conditions: Gal4-hFXR fusion construct, luciferase reporter HEK293 cells; response relative to 8 μM GW-4064; unit inferred
With `Cc1cc(OCC2CC3(CC(/C=C/c4c(-c5ccccc5C(F)(F)F)noc4C4CC4)C3)C2)cnc1C(=O)O` (single isomer, unassigned) [Example 31, (E)-5-((6-(2-(5-Cyclopropyl-3-(2-(trifluoromethyl)phenyl)isoxazol-4-yl)vinyl)spiro [3.3]heptan-2-yl)methoxy)-3-methylpicolinic acid] the EC50 was 139 nM.
Molecule `O=C(O)c1cc(C(F)(F)F)c2cc(N3CC4(CC(/C=C/c5c(-c6c(Cl)cccc6Cl)noc5C5CC5)C4)C3)ccc2n1` [Example 4] has an EC50 of 60 nM.
`O=C(O)c1ccc(N2CC3(CC(/C=C/c4c(-c5c(Cl)cccc5Cl)noc4C4CC4)C3)C2)cc1` [Example 5] was tested, and the EC50 was 130 nM.
`O=C(O)c1cc(C(F)(F)F)c2cc(N3CC4(CC(/C=C/c5c(-c6ccncc6Cl)noc5C5CC5)C4)C3)ccc2n1` [Example 6] showed an EC50 of 140 nM.
Molecule `O=C(O)c1cc(C(F)(F)F)c2cc(N3CC4(CC(/C=C/c5c(-c6c(Cl)cncc6Cl)noc5C5CC5)C4)C3)ccc2n1` [Example 7] has an EC50 of 530 nM.
Molecule `O=C(O)c1cc(C(F)(F)F)c2cc(N3CC4(CC(/C=C/c5c(-c6ccccc6C(F)(F)F)noc5C5CC5)C4)C3)ccc2n1` [Example 8] has an EC50 of 137 nM.
For `Cc1cc(C(=O)O)nc2sc(N3CC4(CC(/C=C/c5c(-c6ccccc6C(F)(F)F)noc5C5CC5)C4)C3)nc12` [Example 9], the EC50 was 268 nM.
With `O=C(O)c1cc(F)c2nc(N3CC4(CC(/C=C/c5c(-c6c(Cl)cncc6Cl)noc5C5CC5)C4)C3)sc2c1` [Example 10] the EC50 was 667 nM.
`CC(C)Oc1cc(C(=O)O)nc2ccc(N3CC4(CC(/C=C/c5c(-c6c(Cl)cncc6Cl)noc5C5CC5)C4)C3)cc12` [Example 11] gave an EC50 of 79 nM.
`CC(C)Oc1cc(C(=O)O)nc2ccc(N3CC4(CC(/C=C/c5c(-c6ccccc6C(F)(F)F)noc5C5CC5)C4)C3)cc12` [Example 12] was tested, and the EC50 was 29 nM.
With `Cc1nc(C(=O)O)cc2ccc(N3CC4(CC(/C=C/c5c(-c6c(Cl)cncc6Cl)noc5C5CC5)C4)C3)cc12` [Example 13] the EC50 was 429 nM.
With `CCc1nc(C(=O)O)cc2ccc(N3CC4(CC(/C=C/c5c(-c6c(Cl)cncc6Cl)noc5C5CC5)C4)C3)cc12` [Example 14] the EC50 was 302 nM.
In the case of `CC(C)Oc1cc(C(=O)O)nc2ccc(N3CC4(CC(/C=C/c5c(-c6ncccc6C(F)(F)F)noc5C5CC5)C4)C3)cc12` [Example 15], the EC50 is reported as 85 nM.
`COc1cc(C(=O)O)nc2ccc(N3CC4(CC(/C=C/c5c(-c6ccccc6C(F)(F)F)noc5C5CC5)C4)C3)cc12` [Example 16] was tested, and the EC50 was 104 nM.
In the case of `O=C(O)c1cc(OC2CCC2)c2cc(N3CC4(CC(/C=C/c5c(-c6c(Cl)cncc6Cl)noc5C5CC5)C4)C3)ccc2n1` [Example 17], the EC50 is reported as 85 nM.
With `O=C(O)c1cc(OC2COC2)c2cc(N3CC4(CC(/C=C/c5c(-c6ccccc6C(F)(F)F)noc5C5CC5)C4)C3)ccc2n1` [Example 18] the EC50 was 52 nM.
Work on `COc1nc(C(=O)O)cc2ccc(N3CC4(CC(/C=C/c5c(-c6ccccc6C(F)(F)F)noc5C5CC5)C4)C3)cc12` [Example 19] yielded an EC50 of 169 nM.
With `O=C(O)c1cc(O[C@@H]2CCOC2)c2cc(N3CC4(CC(/C=C/c5c(-c6ccccc6C(F)(F)F)noc5C5CC5)C4)C3)ccc2n1` [Example 20] the EC50 was 33 nM.
Molecule `O=C(O)c1cc(O[C@H]2CCOC2)c2cc(N3CC4(CC(/C=C/c5c(-c6ccccc6C(F)(F)F)noc5C5CC5)C4)C3)ccc2n1` [Example 21] has an EC50 of 18 nM.
`COc1cc(C(=O)O)nc2ccc(N3CC4(CC(/C=C/c5c(-c6cccnc6C(F)(F)F)noc5C5CC5)C4)C3)cc12` [Example 22] was tested, and the EC50 was 111 nM.
`O=C(O)c1cc(OC2COC2)c2cc(N3CC4(CC(/C=C/c5c(-c6cccnc6C(F)(F)F)noc5C5CC5)C4)C3)ccc2n1` [Example 23] gave an EC50 of 165 nM.
In the case of `O=C(O)c1cc(OC2COC2)c2cc(N3CC4(CC(/C=C/c5c(-c6c(Cl)cncc6Cl)noc5C5CC5)C4)C3)ccc2n1` [Example 24], the EC50 is reported as 114 nM.
`CCOc1cc(C(=O)O)nc2ccc(N3CC4(CC(/C=C/c5c(-c6cccnc6C(F)(F)F)noc5C5CC5)C4)C3)cc12` [Example 25] showed an EC50 of 153 nM.
`O=C(O)c1cc(O[C@@H]2CCOC2)c2cc(N3CC4(CC(/C=C/c5c(-c6cccnc6C(F)(F)F)noc5C5CC5)C4)C3)ccc2n1` [Example 26] was tested, and the EC50 was 231 nM.
`COc1cc(C(=O)O)nc2ccc(N3CC4(CC(/C=C/c5c(-c6c(Cl)cncc6Cl)noc5C5CC5)C4)C3)nc12` [Example 28] was tested, and the EC50 was 1630 nM.
`Cn1nc(C(=O)O)cc1OCC1CC2(CC(/C=C/c3c(-c4c(Cl)cncc4Cl)noc3C3CC3)C2)C1` (stereo not shown) [Example 45] was tested, and the EC50 was 24 nM.
Work on `O=C(O)c1cc(C(F)(F)F)c2cc(OCC3CC4(CC(/C=C/c5c(-c6c(Cl)cncc6Cl)noc5C5CC5)C4)C3)ccc2n1` (stereo not shown) [Example 46] yielded an EC50 of 22 nM.
For `O=C(O)c1cccc(OCC2CC3(CC(/C=C/c4c(-c5c(Cl)cncc5Cl)noc4C4CC4)C3)C2)c1` (stereo not shown) [Example 47], the EC50 was 40 nM.
For `NC(=O)c1cccc(OCC2CC3(CC(/C=C/c4c(-c5ccccc5C(F)(F)F)noc4C4CC4)C3)C2)c1` (stereo not shown) [Example 48], the EC50 was 214 nM.
For `NC(=O)Cc1ccc(OCC2CC3(CC(/C=C/c4c(-c5ccccc5C(F)(F)F)noc4C4CC4)C3)C2)cc1` (stereo not shown) [Example 49], the EC50 was 178 nM.
`Cc1cc(OCC2CC3(CC(/C=C/c4c(-c5ccccc5C(F)(F)F)noc4C4CC4)C3)C2)cnc1C(=O)O` (stereo not shown) [Example 50] was tested, and the EC50 was 142 nM.
Molecule `Cn1nc(C(=O)O)cc1OCC1CC2(CC(/C=C/c3c(-c4ccccc4C(F)(F)F)noc3C3CC3)C2)C1` (stereo not shown) [Example 51] has an EC50 of 99 nM.
`O=C(O)c1cc(C(F)(F)F)c2cc(OCC3CC4(CC(/C=C/c5c(-c6ccccc6C(F)(F)F)noc5C5CC5)C4)C3)ccc2n1` (stereo not shown) [Example 52] was tested, and the EC50 was 82 nM.
For `O=C(O)c1ccc2cc(OCC3CC4(CC(/C=C/c5c(-c6ccccc6C(F)(F)F)noc5C5CC5)C4)C3)ccc2n1` (stereo not shown) [Example 53], the EC50 was 187 nM.
With `O=C(O)c1cc2ccc(OCC3CC4(CC(/C=C/c5c(-c6ccccc6C(F)(F)F)noc5C5CC5)C4)C3)cc2nn1` (stereo not shown) [Example 54] the EC50 was 122 nM.
In the case of `O=C(O)c1ncc(OCC2CC3(CC(/C=C/c4c(-c5c(Cl)cncc5Cl)noc4C4CC4)C3)C2)cc1C(F)(F)F` (stereo not shown) [Example 55], the EC50 is reported as 50 nM.
With `O=C(O)c1ncc(OCC2CC3(CC(/C=C/c4c(-c5ccccc5C(F)(F)F)noc4C4CC4)C3)C2)cc1C(F)(F)F` (stereo not shown) [Example 56] the EC50 was 95 nM.
`O=C(O)c1cc2ccc(OCC3CC4(CC(/C=C/c5c(-c6c(Cl)cncc6Cl)noc5C5CC5)C4)C3)cc2nn1` (stereo not shown) [Example 57] gave an EC50 of 75 nM.
For `O=C(O)c1ncc(OCC2CC3(CC(/C=C/c4c(-c5c(Cl)cncc5Cl)noc4C4CC4)C3)C2)cc1OC1CCC1` (stereo not shown) [Example 58], the EC50 was 22 nM.
`Cc1c(OCC2CC3(CC(/C=C/c4c(-c5c(Cl)cncc5Cl)noc4C4CC4)C3)C2)nn(C(C)C)c1C(=O)O` (stereo not shown) [Example 59] gave an EC50 of 85 nM.
